Where two headings read alike, the source gives them in different places.

Consider 3 molecules from US20180353429A1, “PRODUCT COMPRISING HYDROLIZED COLLAGEN AND AT LEAST ONE AMORPHOUS MICRONIZED DRUG, PROCESS FOR THE PREPARATION THEREOF AND RELATED USES IN MEDICAL FIELD” (S.B.M. S.r.l., priority 2015, published 2018).

Series [1] has as its system gastric mucosa. The series can be described thus: Gastroerosive activity of oral ASA on the gastric mucosa of Wistar rats (ulcer index, histopathology). To be noted: ASA 400 mg/Kg oral. Type of series: in vivo. As to the method: In view of this, it was decided to test the effect of the micronization of ASA (400 mg/Kg) and co-grinding thereof with collagen through oral administration on the mucosa of Wistar rats weighing 210 g and compare it with the effects of the administration of ASA (400 mg/Kg) in its non-micronized form.
In particular, a calculation was made of the effect of ASA on the so-called “ulcer score”, according to a method that differentiates the damage due to the acute administration of high doses of ASA given orally into classes of severity which range from the absence of lesions to the maximum score, which is equivalent to ulcers equal to or greater than 6 mm. Furthermore, an analysis was made of the effects of ASA, in the two formulations used, on the histopathological damage of the gastric mucosa after periodic acid Schiff/Alcian blue staining of the histological samples taken from the animals after the two treatments (FIG. 7).

Series [2] is described as follows: Pharmacokinetics of ASA given orally or sublingually in healthy volunteers (plasma ASA by LC-MS). Format: in vivo. The conditions noted are these: human, tablet; for AUC(0-t): read-out: AUC (0-24 h). As to the method:
The pharmaceutical composition obtained by co-grinding a micronized drug with gelatine was tested in healthy volunteers in order to verify whether the product, in its amorphized form, brought advantages from the standpoint of bioavailability and an enhanced clinical effectiveness associated with an improvement in the safety profile. These tests confirmed that the co-grinding process and simultaneous amorphization of ASA with collagen enables a better absorption of the drug without compromising its effectiveness.
In particular, the administration of the pharmaceutical composition of ASA+collagen after co-grinding in tablet form at doses of 50 and 100 mg given sublingually and orally in groups of 20 healthy volunteers brought about an increase in the plasma concentrations of ASA, determined using the LC-MS method, compared to the administration of equivalent doses of ASA in crystalline form administered sublingually or orally.

The conditions of series [3]: amorphized by co-grinding with β-cyclodextrin or other polymers; cited from earlier work.
The subject of series [4] is thromboxane B2. Kind of series: Plasma thromboxane B2 / urinary thromboxane metabolites after ASA in healthy volunteers. Type of series: in vivo. The conditions noted are these: plasma and urine ASA and urinary thromboxane metabolites, 7 days. How it is done:
This effect was accompanied by a considerable therapeutic effectiveness, given that the plasma peak of thromboxane B2, a biomarker of the anti-aggregation effectiveness of ASA, came 1.5 hours earlier than with the crystalline form of the drug (FIG. 4). […] This fact was confirmed by examining both the plasma and urine concentrations of ASA and of the urinary metabolites of thromboxane after 7 days of administration (FIG. 5).

What is called Cmax is the highest concentration seen after dosing. On to `CC(=O)Oc1ccccc1C(=O)O` [ASA n.m., acetylsalicylic acid], for which the values for the Ulcer index in series [1] (listed as NM-ASA) and in series [1] (listed as non-micronized ASA) were 36.12 ± 4.2 and 36.12±4.2, respectively. Further, the “histopathological damage of the gastric mucosa” value in series [1] (periodic acid Schiff/Alcian blue staining) is listed as “degeneration of cells of the gastric mucosa”. Further, the Cmax is 269 ± 85.4 ng/mL in series [2] (ASA 50 mg oral), 314 ± 89.5 ng/mL in series [2] (ASA 50 mg sublingual), 460 ± 73.2 ng/mL in series [2] (ASA 100 mg oral) and 543 ± 68.3 ng/mL in series [2] (ASA 100 mg sublingual). Further, the AUC(0-t) is 532 ± 123 ng·h/mL in series [2] (ASA 50 mg oral) and 675 ± 75.6 ng·h/mL in series [2] (ASA 50 mg sublingual).
As to `CC(=O)[O][Pt]([NH2])([Cl])([Cl])([NH]C1CCCCC1)[O]C(C)=O` [JM216, bis-acetato-ammine-dichloro-cyclohexylamine-platinum (IV)], in series [3], the water solubility entry was “greater water solubility”.
Regarding collagen, the “effects of collagen on its own” value in series [4] is given as “no significant effects”.
